Activity calls are given as the source filed them.

The target of experiment [1] is T1, Alkaline phosphatase, tissue-nonspecific isozyme (Homo sapiens, UniProt P05186).
T1 sequence (P05186 whole entry): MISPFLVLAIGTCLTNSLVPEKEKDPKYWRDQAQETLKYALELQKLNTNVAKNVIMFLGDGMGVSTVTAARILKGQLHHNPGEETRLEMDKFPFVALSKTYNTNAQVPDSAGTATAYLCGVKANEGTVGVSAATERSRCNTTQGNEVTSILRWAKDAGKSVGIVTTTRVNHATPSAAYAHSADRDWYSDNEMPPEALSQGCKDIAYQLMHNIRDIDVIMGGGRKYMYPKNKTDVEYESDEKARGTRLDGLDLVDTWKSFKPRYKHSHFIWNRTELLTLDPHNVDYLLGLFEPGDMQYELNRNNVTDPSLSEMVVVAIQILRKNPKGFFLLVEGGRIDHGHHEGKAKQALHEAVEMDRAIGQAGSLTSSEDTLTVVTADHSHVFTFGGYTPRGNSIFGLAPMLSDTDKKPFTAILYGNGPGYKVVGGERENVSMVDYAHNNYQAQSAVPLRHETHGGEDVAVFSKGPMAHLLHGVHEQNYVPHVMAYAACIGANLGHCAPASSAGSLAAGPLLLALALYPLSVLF

In experiment [2] the target is T2, Polyadenylate-binding protein 1 (Homo sapiens, UniProt P11940). Put plainly: blockers of PABP interaction with poly(A) – biochemical, fluorescence polarization, […] (AID 2014).
T2 sequence (P11940 whole entry): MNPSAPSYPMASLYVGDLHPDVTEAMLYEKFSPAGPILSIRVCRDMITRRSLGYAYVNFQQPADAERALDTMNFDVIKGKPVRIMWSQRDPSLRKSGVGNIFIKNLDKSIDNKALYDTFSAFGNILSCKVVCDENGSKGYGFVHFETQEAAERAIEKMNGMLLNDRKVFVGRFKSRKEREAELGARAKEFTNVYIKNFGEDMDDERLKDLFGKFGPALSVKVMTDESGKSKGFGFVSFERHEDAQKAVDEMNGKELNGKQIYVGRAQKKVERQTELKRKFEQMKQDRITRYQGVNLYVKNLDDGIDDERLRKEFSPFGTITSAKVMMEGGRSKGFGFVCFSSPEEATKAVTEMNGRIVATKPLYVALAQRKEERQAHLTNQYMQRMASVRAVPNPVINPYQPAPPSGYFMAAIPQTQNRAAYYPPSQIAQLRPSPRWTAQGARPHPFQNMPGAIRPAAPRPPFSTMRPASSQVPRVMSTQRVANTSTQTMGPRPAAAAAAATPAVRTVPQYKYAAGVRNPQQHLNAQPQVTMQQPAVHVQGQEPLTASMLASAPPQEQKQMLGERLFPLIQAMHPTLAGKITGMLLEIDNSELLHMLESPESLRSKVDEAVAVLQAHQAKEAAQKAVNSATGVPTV
The target in experiment [3] is T2, Polyadenylate-binding protein 1. Description: PABP inhibition in translation initiation, SAR follow-up (AID 435018). The class given is functional.
In experiment [4] the target is T3, Eukaryotic translation initiation factor 4H (Homo sapiens, UniProt Q15056). Put plainly: eIF4H binding inhibition – biochemical, uHTS, fluorescence polarization, translation initiation inhibitor project, primary screen (AID 2012).
Experiment [5] concerns the target T3, Eukaryotic translation initiation factor 4H. Put plainly: inhibitors of translation initiation factor eIF4H – SAR follow-up (AID 435011). The class given is functional.
In experiment [6] the target is DNA dC->dU-editing enzyme APOBEC-3A (Homo sapiens, UniProt P31941). Description: Dose Response confirmation of small molecule APOBEC3A DNA Deaminase Inhibitors via a fluorescence-based single-stranded DNA deaminase assay. [Related pubchem assays (depositor defined):AID493011, AID493024]. The class given is functional.
Chain of DNA dC->dU-editing enzyme APOBEC-3A (P31941 whole entry): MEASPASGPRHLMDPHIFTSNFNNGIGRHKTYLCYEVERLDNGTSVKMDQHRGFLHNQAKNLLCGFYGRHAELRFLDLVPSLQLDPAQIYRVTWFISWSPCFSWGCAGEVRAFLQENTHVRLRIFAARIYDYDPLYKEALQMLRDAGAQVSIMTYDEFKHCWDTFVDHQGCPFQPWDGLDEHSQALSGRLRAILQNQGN
The target of experiment [7] is DNA dC->dU-editing enzyme APOBEC-3G (Homo sapiens, UniProt Q9HC16). The class given is functional.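 Also: Dose-response counterscreen measuring inhibition of APOBEC3G DNA deaminase activity, run while confirming APOBEC3A inhibitors.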
Chain of DNA dC->dU-editing enzyme APOBEC-3G (Q9HC16 whole entry): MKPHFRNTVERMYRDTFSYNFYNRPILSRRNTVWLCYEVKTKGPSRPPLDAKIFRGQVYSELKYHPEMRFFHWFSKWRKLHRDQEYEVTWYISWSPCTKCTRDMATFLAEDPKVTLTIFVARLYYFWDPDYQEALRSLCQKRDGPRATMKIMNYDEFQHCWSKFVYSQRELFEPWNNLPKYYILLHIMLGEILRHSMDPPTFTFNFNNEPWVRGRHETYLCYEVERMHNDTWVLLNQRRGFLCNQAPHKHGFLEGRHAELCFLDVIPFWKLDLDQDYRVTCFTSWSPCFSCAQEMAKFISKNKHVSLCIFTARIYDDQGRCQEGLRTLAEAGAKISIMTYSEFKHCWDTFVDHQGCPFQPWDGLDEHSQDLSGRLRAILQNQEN
For experiment [8], the target named is Intestinal-type alkaline phosphatase (Mus musculus, UniProt P24822). Put plainly: PubChem AID 488785. The class given is functional.
Chain of Intestinal-type alkaline phosphatase (Mus musculus, UniProt P24822) (P24822 whole entry): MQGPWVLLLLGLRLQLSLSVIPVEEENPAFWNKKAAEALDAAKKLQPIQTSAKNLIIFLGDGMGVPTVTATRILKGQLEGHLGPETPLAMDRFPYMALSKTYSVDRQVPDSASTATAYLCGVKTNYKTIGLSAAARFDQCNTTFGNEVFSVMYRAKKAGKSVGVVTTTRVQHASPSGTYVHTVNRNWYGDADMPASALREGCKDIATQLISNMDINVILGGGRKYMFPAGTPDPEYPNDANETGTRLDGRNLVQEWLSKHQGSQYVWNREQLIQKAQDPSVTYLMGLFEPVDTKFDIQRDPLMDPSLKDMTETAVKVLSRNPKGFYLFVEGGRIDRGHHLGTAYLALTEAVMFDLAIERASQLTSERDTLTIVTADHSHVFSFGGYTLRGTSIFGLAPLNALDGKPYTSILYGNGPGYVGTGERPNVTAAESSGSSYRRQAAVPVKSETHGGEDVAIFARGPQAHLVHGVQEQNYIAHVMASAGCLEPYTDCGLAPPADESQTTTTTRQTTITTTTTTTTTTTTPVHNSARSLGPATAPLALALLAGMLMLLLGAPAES
Experiment [9] in a line: loss of viability in HepG2 cells – cell-based, CellTiter-Glo, cherry-picked, cytotoxicity control for Shn3 inhibitor project, dose response (AID 624134). The class given is functional.
Experiment [10] in a line: non-specific 3'UTR reporter inhibition in Clone20-Shn3RL – cell-based, Renilla luciferase, cherry-picked, counter-screen for Shn3 inhibitor project, dose response (AID 624133). The class given is functional. On the technique in general: Counterscreens check selectivity or assay interference.
The target in experiment [11] is T1, Alkaline phosphatase, tissue-nonspecific isozyme. Put plainly: TNAP enzyme inhibition by screening hits, dose response, selectivity assay for mouse IAP inhibitor project, biochemical, human TNAP, uHTS hits (AID 488906). The class given is functional.
A short description of experiment [12]: reduction of Shn3 3'UTR-driven luciferase in osteoblasts – cell-based, Clone20 osteoblasts, firefly luciferase, cherry-picked, dose response (AID 624132).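 Also: firefly luciferase luminescence from reporter carrying the Shn3 3'UTR in osteoblasts.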 The class given is functional.
The target in experiment [13] is Intestinal-type alkaline phosphatase (Homo sapiens, UniProt P09923). Put plainly: inhibition of human intestinal alkaline phosphatase – biochemical, dose response (AID 488876). The class given is functional.
Chain of Intestinal-type alkaline phosphatase (Homo sapiens, UniProt P09923) (P09923 whole entry): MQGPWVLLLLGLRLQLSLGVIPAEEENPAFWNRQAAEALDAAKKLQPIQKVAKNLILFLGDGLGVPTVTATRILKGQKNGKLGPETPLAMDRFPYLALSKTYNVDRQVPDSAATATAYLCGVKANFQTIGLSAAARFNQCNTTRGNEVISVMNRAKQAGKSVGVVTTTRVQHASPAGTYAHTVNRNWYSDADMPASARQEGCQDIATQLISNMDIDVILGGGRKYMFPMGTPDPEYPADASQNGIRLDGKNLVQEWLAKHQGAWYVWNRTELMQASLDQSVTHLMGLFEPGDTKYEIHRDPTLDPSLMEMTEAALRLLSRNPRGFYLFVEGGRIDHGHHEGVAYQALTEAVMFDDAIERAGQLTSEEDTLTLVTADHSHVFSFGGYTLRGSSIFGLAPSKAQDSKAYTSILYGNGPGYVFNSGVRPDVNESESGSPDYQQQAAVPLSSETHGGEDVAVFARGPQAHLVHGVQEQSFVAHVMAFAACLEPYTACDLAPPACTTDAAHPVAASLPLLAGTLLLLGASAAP
For another experiment, the target named is T4, ORF 73 (Human herpesvirus 8, UniProt O40947).
T4 sequence (O40947 whole entry): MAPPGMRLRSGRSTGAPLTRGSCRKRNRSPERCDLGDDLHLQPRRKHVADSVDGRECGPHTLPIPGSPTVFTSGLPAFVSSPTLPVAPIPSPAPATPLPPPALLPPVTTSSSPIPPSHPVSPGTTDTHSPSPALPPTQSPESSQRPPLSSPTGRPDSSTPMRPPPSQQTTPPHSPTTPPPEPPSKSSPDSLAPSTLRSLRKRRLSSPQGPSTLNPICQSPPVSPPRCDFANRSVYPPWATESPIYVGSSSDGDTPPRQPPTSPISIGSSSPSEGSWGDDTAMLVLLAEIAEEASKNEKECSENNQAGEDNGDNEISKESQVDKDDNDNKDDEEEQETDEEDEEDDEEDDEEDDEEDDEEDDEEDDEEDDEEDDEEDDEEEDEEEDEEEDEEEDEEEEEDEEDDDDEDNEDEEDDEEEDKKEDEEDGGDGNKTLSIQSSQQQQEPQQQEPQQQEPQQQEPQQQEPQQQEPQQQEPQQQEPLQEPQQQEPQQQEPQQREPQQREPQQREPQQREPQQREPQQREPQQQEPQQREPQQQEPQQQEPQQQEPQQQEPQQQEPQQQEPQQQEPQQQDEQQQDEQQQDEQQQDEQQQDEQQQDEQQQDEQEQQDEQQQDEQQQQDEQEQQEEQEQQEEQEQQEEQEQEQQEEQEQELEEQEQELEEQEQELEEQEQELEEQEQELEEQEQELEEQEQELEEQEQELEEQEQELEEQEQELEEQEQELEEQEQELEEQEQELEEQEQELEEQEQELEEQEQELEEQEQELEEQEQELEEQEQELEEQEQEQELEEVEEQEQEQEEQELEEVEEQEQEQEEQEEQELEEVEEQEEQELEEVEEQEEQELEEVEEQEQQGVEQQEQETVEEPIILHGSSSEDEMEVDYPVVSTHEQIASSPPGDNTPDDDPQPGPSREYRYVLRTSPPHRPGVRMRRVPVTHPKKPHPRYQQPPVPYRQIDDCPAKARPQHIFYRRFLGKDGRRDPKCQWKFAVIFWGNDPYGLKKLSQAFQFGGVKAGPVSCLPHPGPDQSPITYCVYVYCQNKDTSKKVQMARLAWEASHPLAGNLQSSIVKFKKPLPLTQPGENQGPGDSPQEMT
Description: KSHV LANA DNA-binding disruption – biochemical, fluorescence polarization, cherry-picked samples, dose response (AID 504725).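 Also: fluorescence polarization of a labeled DNA duplex reporting LANA DNA binding; potency is for inhibitors that block LANA binding to the DNA.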 Further details: species or system Human gammaherpesvirus 8. (In general: Fluorescence polarisation rises when a labelled molecule tumbles more slowly, as on binding a larger partner.)

In experiment [14] the target is T5, Carboxy-terminal domain RNA polymerase II polypeptide A small phosphatase 1 (Homo sapiens, UniProt Q9GZU7).
T5 sequence (Q9GZU7 whole entry): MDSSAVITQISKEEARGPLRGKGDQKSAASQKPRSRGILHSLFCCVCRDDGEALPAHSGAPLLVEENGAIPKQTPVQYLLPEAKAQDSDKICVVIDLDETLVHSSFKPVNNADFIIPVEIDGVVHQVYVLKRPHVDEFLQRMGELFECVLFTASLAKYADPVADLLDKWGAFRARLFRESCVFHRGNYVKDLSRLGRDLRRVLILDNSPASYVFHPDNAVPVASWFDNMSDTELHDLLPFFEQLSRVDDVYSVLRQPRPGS
Description: CTDSP1 inhibitors, concentration-response, biochemical, absorbance readout, ultra-high-throughput screen actives (AID 540297). The class given is functional.

The target in a further experiment is Leucine aminopeptidase (Plasmodium falciparum 3D7, UniProt Q8IL11). Description: P. falciparum M17LAP inhibitors, primary screen, biochemical, fluorogenic H-Leu-NHMec substrate, 1536-well (AID 1619). The class given is functional.
Chain of Leucine aminopeptidase (Q8IL11 whole entry): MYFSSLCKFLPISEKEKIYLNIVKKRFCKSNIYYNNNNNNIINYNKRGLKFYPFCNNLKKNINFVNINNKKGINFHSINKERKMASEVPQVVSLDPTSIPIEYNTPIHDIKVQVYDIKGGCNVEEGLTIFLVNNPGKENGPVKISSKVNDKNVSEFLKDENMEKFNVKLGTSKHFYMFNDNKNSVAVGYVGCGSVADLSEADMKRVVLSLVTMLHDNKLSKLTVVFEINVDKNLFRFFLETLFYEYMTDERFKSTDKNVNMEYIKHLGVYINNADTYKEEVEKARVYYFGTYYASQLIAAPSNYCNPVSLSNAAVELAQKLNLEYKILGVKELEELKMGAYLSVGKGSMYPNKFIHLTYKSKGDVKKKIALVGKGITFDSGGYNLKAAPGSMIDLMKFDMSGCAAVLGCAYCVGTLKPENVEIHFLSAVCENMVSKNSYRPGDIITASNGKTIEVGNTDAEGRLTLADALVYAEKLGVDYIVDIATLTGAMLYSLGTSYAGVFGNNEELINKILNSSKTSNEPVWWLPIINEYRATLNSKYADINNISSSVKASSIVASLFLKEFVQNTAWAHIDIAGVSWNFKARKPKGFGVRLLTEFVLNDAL
The target of experiment [15] is DNA (cytosine-5)-methyltransferase 1 (Homo sapiens, UniProt P26358). Put plainly: inhibition of DNA methylation by DNMT1 – biochemical, fluorescent molecular beacon, confirmation (AID 602386). The class given is functional.
The target in experiment [16] is Bifunctional protein GlmU (Mycobacterium tuberculosis, UniProt P9WMN3). Put plainly: Inhibitors of Mycobacterial Glucosamine-1-phosphate acetyl transferase (GlmU). Secondary screen. Also on record: species or system Mycobacterium tuberculosis H37Rv.
Chain of Bifunctional protein GlmU (P9WMN3 whole entry): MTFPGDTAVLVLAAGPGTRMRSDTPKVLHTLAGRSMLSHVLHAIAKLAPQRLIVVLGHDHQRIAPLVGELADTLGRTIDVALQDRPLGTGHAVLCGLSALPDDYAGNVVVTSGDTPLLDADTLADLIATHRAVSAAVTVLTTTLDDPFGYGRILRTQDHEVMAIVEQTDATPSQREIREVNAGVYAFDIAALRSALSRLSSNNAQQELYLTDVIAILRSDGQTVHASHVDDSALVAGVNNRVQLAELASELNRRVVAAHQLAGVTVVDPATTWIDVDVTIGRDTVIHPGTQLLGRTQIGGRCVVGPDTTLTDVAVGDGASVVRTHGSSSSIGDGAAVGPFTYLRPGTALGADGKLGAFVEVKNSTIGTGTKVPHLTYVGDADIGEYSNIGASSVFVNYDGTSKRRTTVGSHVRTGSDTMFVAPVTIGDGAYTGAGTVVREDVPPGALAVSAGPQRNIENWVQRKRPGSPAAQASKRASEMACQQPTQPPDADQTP
For experiment [17], the target named is T6, Long-chain-fatty-acid--AMP ligase FadD28 (Mycobacterium tuberculosis, UniProt P9WQ59).
T6 sequence (P9WQ59 whole entry): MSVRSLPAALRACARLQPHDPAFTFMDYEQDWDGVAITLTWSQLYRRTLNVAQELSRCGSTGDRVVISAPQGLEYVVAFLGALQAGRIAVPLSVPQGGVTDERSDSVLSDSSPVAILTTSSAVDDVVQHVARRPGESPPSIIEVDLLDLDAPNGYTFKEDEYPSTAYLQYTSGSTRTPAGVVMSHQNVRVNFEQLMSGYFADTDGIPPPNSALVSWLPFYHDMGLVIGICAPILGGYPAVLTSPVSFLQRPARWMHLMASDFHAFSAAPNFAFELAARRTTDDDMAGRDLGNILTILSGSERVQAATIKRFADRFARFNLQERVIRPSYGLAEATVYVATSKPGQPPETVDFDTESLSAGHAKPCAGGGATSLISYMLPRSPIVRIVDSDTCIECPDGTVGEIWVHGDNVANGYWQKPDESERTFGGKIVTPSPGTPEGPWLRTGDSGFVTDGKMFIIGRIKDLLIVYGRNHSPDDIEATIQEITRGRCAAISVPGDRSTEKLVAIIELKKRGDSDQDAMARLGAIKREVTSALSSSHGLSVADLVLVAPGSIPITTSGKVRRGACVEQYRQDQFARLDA
Put plainly: Fluorescence polarization aasay to screen for inhibitors that compete for the binding of FadD28 to a bisubstrate Measured in Biochemical System Using Plate Reader - 2147-01_Inhibitor_Dose_CherryPick_Activity. The class given is functional, Mycobacterium tuberculosis H37Rv.

Experiment [18] concerns the target T7, Histone-lysine N-methyltransferase NSD2 (Homo sapiens, UniProt O96028).
T7 sequence (O96028 whole entry): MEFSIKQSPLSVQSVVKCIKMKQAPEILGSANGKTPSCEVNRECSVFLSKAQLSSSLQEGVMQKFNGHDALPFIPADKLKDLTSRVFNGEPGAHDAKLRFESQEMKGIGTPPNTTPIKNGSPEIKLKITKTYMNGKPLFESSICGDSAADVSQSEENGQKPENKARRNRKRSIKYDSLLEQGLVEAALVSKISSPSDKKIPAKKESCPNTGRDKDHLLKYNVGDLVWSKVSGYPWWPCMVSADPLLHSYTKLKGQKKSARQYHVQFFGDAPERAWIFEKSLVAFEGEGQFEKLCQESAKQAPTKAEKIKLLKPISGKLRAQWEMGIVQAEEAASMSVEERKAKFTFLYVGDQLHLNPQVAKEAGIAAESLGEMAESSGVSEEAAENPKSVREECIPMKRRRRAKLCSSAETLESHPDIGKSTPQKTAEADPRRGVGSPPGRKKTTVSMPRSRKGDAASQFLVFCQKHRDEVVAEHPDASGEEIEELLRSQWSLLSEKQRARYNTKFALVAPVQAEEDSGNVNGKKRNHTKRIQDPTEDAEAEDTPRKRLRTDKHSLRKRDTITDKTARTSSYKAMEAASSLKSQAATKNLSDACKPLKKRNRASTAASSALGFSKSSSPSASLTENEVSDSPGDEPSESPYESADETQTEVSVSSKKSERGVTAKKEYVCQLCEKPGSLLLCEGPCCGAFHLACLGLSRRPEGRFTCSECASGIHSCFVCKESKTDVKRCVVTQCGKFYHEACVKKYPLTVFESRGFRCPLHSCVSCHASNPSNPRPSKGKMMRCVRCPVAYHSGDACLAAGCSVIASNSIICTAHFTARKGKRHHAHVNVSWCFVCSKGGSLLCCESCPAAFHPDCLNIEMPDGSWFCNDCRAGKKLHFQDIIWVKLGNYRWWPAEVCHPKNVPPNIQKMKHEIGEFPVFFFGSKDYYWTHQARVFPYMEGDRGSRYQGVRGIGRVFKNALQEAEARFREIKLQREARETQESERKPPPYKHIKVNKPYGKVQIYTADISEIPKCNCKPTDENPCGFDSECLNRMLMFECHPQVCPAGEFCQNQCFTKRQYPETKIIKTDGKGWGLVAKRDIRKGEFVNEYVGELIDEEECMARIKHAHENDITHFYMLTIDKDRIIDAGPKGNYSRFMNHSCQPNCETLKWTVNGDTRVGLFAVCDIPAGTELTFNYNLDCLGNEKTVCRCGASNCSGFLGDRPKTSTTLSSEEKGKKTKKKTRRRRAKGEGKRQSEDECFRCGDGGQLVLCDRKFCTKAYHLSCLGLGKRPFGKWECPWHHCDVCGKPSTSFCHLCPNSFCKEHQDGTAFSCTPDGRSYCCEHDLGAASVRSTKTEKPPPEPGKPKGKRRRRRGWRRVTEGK
The class given is biochemical.

Another experiment deals with X-box-binding protein 1 (Homo sapiens, UniProt P17861). The class given is functional, Cricetulus griseus.
Chain of X-box-binding protein 1 (P17861 whole entry): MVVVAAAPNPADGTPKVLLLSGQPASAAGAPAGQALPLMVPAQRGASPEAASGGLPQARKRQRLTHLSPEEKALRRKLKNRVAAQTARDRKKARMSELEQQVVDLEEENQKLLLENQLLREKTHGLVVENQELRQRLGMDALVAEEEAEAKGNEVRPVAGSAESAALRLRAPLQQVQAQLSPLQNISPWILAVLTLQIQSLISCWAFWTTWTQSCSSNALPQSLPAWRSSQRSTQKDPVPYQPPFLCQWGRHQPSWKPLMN
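For Absolute IC50 (XBP1) in this document: confirmatory dose-response counter-screen serving a CHOP assay.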

`CC(C)CN=C(S)NNC(=O)c1ccc2c(c1)OCO2`: the concentration giving a half-maximal response (EC50) (as a rule, the concentration at which the effect is half-maximal) in experiment [1] was 40.7 µM (active).

Take `CCN1CCN(S(=O)(=O)c2ccc(Cl)c(C(=O)N(CC)CC(=O)Nc3ccc(OC)cc3)c2)CC1`: the IC50 – broadly, the concentration at which inhibition is half-maximal – in experiment [2] is 3.26 µM (active); in experiment [3] it was 4.68 µM (active); in experiment [4] it was 85.9 µM (active); in experiment [5], 21 µM (active); in [6], 3.4 µM (active); in experiment [7] it was 3.43 µM (active).

`Cc1ccc(N=C(N)Nc2nc(C)cc(N3CCCCC3)n2)c(C)c1`: the IC50 in experiment [8] was 3.34 µM (active); in experiment [11], 32.1 µM (active); in [13], 70.1 µM (active). For the same compound, the AC50 (commonly the concentration giving half of the maximal activity seen) is 5.74 µM (active) in experiment [9], 639 nM (active) in [10] and 891 nM (active) in [12]. The EC50 in [1] was 71.7 µM (not active).

Take `CC(=O)Nc1cccc(NC(=O)CSc2ccc(-c3ccco3)nn2)c1`: the IC50 was 46.3 µM (active) in experiment [2], > 100 µM (inactive) in experiment [3], 10.3 µM (active) in experiment [4] and 25 µM (active) in experiment [5].

Turning to `Cc1cc(/C=C2\C(=O)NC(=O)N(Cc3ccccc3)C2=O)c(C)n1-c1ccc(Cl)c(C(=O)O)c1`, the AC50 at ORF 73 was 76.2 µM (active); in experiment [17], 35.6 µM (active); in experiment [18], 5.47 µM (active). Besides, the IC50 in experiment [14] was 1.02 µM (active); on Leucine aminopeptidase it was 72.7 µM (active); in experiment [15], 3.35 µM (active); in [16], 71.9 µM (active).

As to `Cc1ccc(/C=N/n2c(S)nnc2C2CCCCC2)s1`, the “Absolute IC50 (XBP1)” value at X-box-binding protein 1 was determined as 10 µM.

For the origin of these results see ChEMBL document CHEMBL1201862, “PubChem BioAssay data set” (2004).
